What was measured:
TORID = TORID (Homo sapiens, UniProt Q3YBM2); conditions: prior application WO2018203262A1; cited from earlier work
inflammasome (NLRP3) = conditions: prior application WO2018203262A1; cited from earlier work
two tumor types = conditions: anti-PD-1 resistant mice, WO2018203262A1; cited from earlier work
NLRP3 inflammasome = NLRP3 inflammasome activation in LPS/ATP-treated BMDCs, IL-1β in culture supernatant by ELISA; assay type: cell-based; conditions: mouse BMDCs, LPS 0.25 μg/ml for 3 hr and ATP 0.5 mM, vs vehicle control (DMSO)
Description: (§1) Triggering inflammasome activation: Mouse bone marrow-derived dendritic cells (BMDCs) are treated with LPS and ATP to trigger NLRP3 inflammasome activation in the presence of vehicle control (DMSO) or the indicated ion channels modulators. IL-1β is measured in the culture supernatant by ELISA. • [IL-1β was used to measure the degree of inflammasome activation] • b. Inhibiting TORID-dependent ion flux: CHO-7 cells were transfected with TORID-1 and TORID-2 plasmids. Cells were then loaded with the Na^+-sensitive fluorescent dye-ANG-2-. ANG-2 mean fluorescence intensity (MFI) subtracting in each condition the MFI obtained in Na+-free buffer substituted with NMDG+ is shown. Cells left untreated or treated with the indicated drugs were studied • [MFI was used to measure the degree of inhibition of TORID-dependent ion flux.
(§2) IL-1β was measured in the culture supernatant by ELISA. • B CHO-7 cells were transfected with Tmem176b (TORID-1) and Tmem176a (TORID-2)-mcherry-coding pSecTag2B plasmids. Cells were then loaded with the Na^+-sensitive fluorescent dye Asante NaTRIUM Green 2 (ANG-2). ANG-2 mean fluorescence intensity (MFI) subtracting in each condition the MFI obtained in Na^+-free buffer substituted with NMDG^+ is shown. Cells left untreated or treated with the indicated drugs were studied.

[1] = system: Tmem176b (TORID-1) and Tmem176a (TORID-2); assay: TORID-dependent ion flux, ANG-2 Na+-sensitive dye MFI in transfected CHO-7 cells; assay type: cell-based; conditions: CHO-7 cells transfected with Tmem176b and Tmem176a-mcherry pSecTag2B plasmids, vs untreated cells
Description: as §1, §2

Chain of TORID (Q3YBM2 whole entry): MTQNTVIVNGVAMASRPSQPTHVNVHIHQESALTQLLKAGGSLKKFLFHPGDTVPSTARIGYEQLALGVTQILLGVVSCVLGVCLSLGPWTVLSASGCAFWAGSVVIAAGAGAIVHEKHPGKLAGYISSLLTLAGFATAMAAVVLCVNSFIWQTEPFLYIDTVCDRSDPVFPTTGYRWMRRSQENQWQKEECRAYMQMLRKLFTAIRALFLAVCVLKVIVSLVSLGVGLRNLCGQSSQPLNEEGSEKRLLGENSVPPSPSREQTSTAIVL

| SMILES | TORID activity (TORID) | inflammasome (NLRP3) expression (inflammasome (NLRP3)) | rate of survival (two tumor types) | NLRP3 inflammasome activation (IL-1β in culture supernatant by ELISA) (NLRP3 inflammasome) | TORID activity (ANG-2 MFI, Na+-free NMDG+ buffer MFI subtracted) [1] |
| --- | --- | --- | --- | --- | --- |
| COC(=O)C1=C(C)NC(C)=C([N+](=O)[O-])C1c1ccccc1C(F)(F)F (single isomer, unassigned; (+)) [(+)BAY K8644, Methyl 2,6-dimethyl-5-nitro-4-[2-(trifluoromethyl)phenyl]-1,4-dihydropyridine-3-carboxylate] | inhibited TORID activity | increased inflammasome (NLRP3) expression | higher rate of survival |  |  |
| CCN1C[C@]2(COC)[C@H](O)C[C@H](OC)[C@@]34[C@@H]5C[C@@]6(O)[C@H](OC(=O)c7ccccc7)[C@@H]5[C@@](OC(C)=O)([C@@H]([C@H](OC)[C@H]23)[C@@H]14)[C@@H](O)[C@@H]6OC [Aconitine] |  |  |  | enhance NLRP3 inflammasome activation | inhibit TORID activity |
| CCN(CC)CC(=O)Nc1c(C)cccc1C [Lidocaine] |  |  |  | enhance NLRP3 inflammasome activation | inhibit TORID activity |
| CCN(CC)CCNC(=O)c1ccc(N)cc1 [Procainamide] |  |  |  | enhance NLRP3 inflammasome activation | inhibit TORID activity |

Reference: patent publication US12263143B2, “Ionic channel modulation as a method for treating tumors through inflammasome activation” (priority 2019, dated 2025)
